Test results reported in ChEMBL document CHEMBL3885861, “Open TG-GATES”.

Organism: Rattus norvegicus
Experiment: Open TG-GATES - Regimen: Single
Format: toxicity, organism-based, Sprague-Dawley
Design: regimen Single, gender Male, age 6 weeks
Conditions: in vivo, po, 100 mg/kg, route gavage, dose level Middle; for APTT / Bas / Eos / Fbg / Hb / Ht / Lym / MCH / MCHC / MCV / Mono / Neu / PT / Plat / RBC / Ret / WBC: tissue Blood; for KIDNEY_L / KIDNEY_R / KIDNEY_TOTAL: tissue Kidney; for LIVER: tissue Liver; for A/G / ALP / ALT / AST / BUN / CRE / Ca / Cl / DBIL / GLC / IP / K / LDH / Na / PL / RALB / TBIL / TC / TG / TP / gamma-GTP: tissue Plasma

With `Brc1ccccc1` [BROMOBENZENE] the TERMINAL_BW (3 h) was 191 g, the APTT (3 h) was 16 s and the Bas (3 h) was 0%. It also gave an Eos (3 h) of 0.6%, a Fbg (3 h) of 266.6 mg/dL and a Hb (3 h) of 13.4 g/dL. It also gave a Ht (3 h) of 40.5%, a Lym (3 h) of 79.2% and an MCH (3 h) of 21.4 pg. The MCHC (3 h) was 33%, the MCV (3 h) was 64.7 fL and the Mono (3 h) was 3.6%. The Neu (3 h) was 16%, the PT (3 h) was 12.3 s and the Plat (3 h) was 111.5 x10_4/uL. For the same molecule, the RBC (3 h) was 625.8 x10_4/ul, the Ret (3 h) was 10% and the WBC (3 h) was 74.4 x10_2/uL. It also gave a KIDNEY_L (3 h) of 0.8 g, a KIDNEY_R (3 h) of 0.8 g and a KIDNEY_TOTAL (3 h) of 1.6 g. For the same molecule, the LIVER (3 h) was 7.8 g, the A/G (3 h) was 0.9 and the ALP (3 h) was 1591.2 IU/L. The ALT (3 h) was 51 IU/L, the AST (3 h) was 76.8 IU/L and the BUN (3 h) was 8.6 mg/dL. For the same molecule, the CRE (3 h) was 0.2 mg/dL, the Ca (3 h) was 11 mg/dL and the Cl (3 h) was 105.8 meq/L. It also gave a DBIL (3 h) of 0.004 mg/dL, a GLC (3 h) of 183 mg/dL and an IP (3 h) of 11.1 mg/dL. For the same molecule, the K (3 h) was 3.9 meq/L, the LDH (3 h) was 80.8 IU/L and the Na (3 h) was 142.8 meq/L. It also gave a PL (3 h) of 155.6 mg/dL, an RALB (3 h) of 2.7 g/dL and a TBIL (3 h) of 0.044 mg/dL. For the same molecule, the TC (3 h) was 87.4 mg/dL, the TG (3 h) was 42.6 mg/dL and the TP (3 h) was 5.7 g/dL. For the same molecule, the gamma-GTP (3 h) was 1.2 IU/L, the TERMINAL_BW (6 h) was 190.5 g and the APTT (6 h) was 15.9 s. For the same molecule, the Bas (6 h) was 0%, the Eos (6 h) was 0.8% and the Fbg (6 h) was 269.2 mg/dL. The Hb (6 h) was 13.4 g/dL, the Ht (6 h) was 39.7% and the Lym (6 h) was 78.8%. For the same molecule, the MCH (6 h) was 21.4 pg, the MCHC (6 h) was 33.8% and the MCV (6 h) was 63.3 fL. It also gave a Mono (6 h) of 2.4%, a Neu (6 h) of 17.6% and a PT (6 h) of 12.4 s. It also gave a Plat (6 h) of 107.8 x10_4/uL, an RBC (6 h) of 627 x10_4/ul and a Ret (6 h) of 8.6%. The WBC (6 h) was 68.9 x10_2/uL, the KIDNEY_L (6 h) was 0.8 g and the KIDNEY_R (6 h) was 0.8 g. The KIDNEY_TOTAL (6 h) was 1.6 g, the LIVER (6 h) was 6.8 g and the A/G (6 h) was 0.9. For the same molecule, the ALP (6 h) was 1550 IU/L, the ALT (6 h) was 41.8 IU/L and the AST (6 h) was 75.4 IU/L. It also gave a BUN (6 h) of 9.4 mg/dL, a CRE (6 h) of 0.1 mg/dL and a Ca (6 h) of 10.8 mg/dL. For the same molecule, the Cl (6 h) was 105.4 meq/L, the DBIL (6 h) was 0.014 mg/dL and the GLC (6 h) was 179.8 mg/dL. For the same molecule, the IP (6 h) was 11 mg/dL, the K (6 h) was 3.8 meq/L and the LDH (6 h) was 64.4 IU/L. For the same molecule, the Na (6 h) was 141.2 meq/L, the PL (6 h) was 137.8 mg/dL and the RALB (6 h) was 2.6 g/dL. It also gave a TBIL (6 h) of 0.054 mg/dL, a TC (6 h) of 78.4 mg/dL and a TG (6 h) of 41.4 mg/dL. The TP (6 h) was 5.6 g/dL, the gamma-GTP (6 h) was 1.6 IU/L and the TERMINAL_BW (9 h) was 190 g. For the same molecule, the APTT (9 h) was 15.5 s, the Bas (9 h) was 0% and the Eos (9 h) was 0.6%. It also gave a Fbg (9 h) of 266.4 mg/dL, a Hb (9 h) of 13.5 g/dL and a Ht (9 h) of 40.2%. It also gave a Lym (9 h) of 76.8%, an MCH (9 h) of 21.5 pg and an MCHC (9 h) of 33.6%. It also gave an MCV (9 h) of 63.9 fL, a Mono (9 h) of 2.2% and a Neu (9 h) of 19.4%. It also gave a PT (9 h) of 12.3 s, a Plat (9 h) of 115.9 x10_4/uL and an RBC (9 h) of 629 x10_4/ul. The Ret (9 h) was 9.1%, the WBC (9 h) was 79.5 x10_2/uL and the KIDNEY_L (9 h) was 0.8 g. The KIDNEY_R (9 h) was 0.8 g, the KIDNEY_TOTAL (9 h) was 1.5 g and the LIVER (9 h) was 6.8 g. For the same molecule, the A/G (9 h) was 0.9, the ALP (9 h) was 1400.4 IU/L and the ALT (9 h) was 39.4 IU/L. It also gave an AST (9 h) of 70.8 IU/L, a BUN (9 h) of 13 mg/dL and a CRE (9 h) of 0.2 mg/dL. It also gave a Ca (9 h) of 10.8 mg/dL, a Cl (9 h) of 107 meq/L and a DBIL (9 h) of 0.02 mg/dL. The GLC (9 h) was 179.2 mg/dL, the IP (9 h) was 10.8 mg/dL and the K (9 h) was 4 meq/L. For the same molecule, the LDH (9 h) was 78.2 IU/L, the Na (9 h) was 141.8 meq/L and the PL (9 h) was 147.8 mg/dL. The RALB (9 h) was 2.6 g/dL, the TBIL (9 h) was 0.064 mg/dL and the TC (9 h) was 88 mg/dL. The TG (9 h) was 29.4 mg/dL, the TP (9 h) was 5.5 g/dL and the gamma-GTP (9 h) was 1.4 IU/L. For the same molecule, the TERMINAL_BW (24 h) was 193.2 g, the APTT (24 h) was 15.4 s and the Bas (24 h) was 0%. The Eos (24 h) was 0.8%, the Fbg (24 h) was 224.4 mg/dL and the Hb (24 h) was 12.9 g/dL. For the same molecule, the Ht (24 h) was 38%, the Lym (24 h) was 79.6% and the MCH (24 h) was 21.5 pg. For the same molecule, the MCHC (24 h) was 33.9%, the MCV (24 h) was 63.3 fL and the Mono (24 h) was 2.8%. The Neu (24 h) was 16.4%, the PT (24 h) was 12.9 s and the Plat (24 h) was 112.9 x10_4/uL. For the same molecule, the RBC (24 h) was 600.8 x10_4/ul, the Ret (24 h) was 8.5% and the WBC (24 h) was 84.8 x10_2/uL. For the same molecule, the KIDNEY_L (24 h) was 0.9 g, the KIDNEY_R (24 h) was 0.9 g and the KIDNEY_TOTAL (24 h) was 1.7 g. It also gave an LIVER (24 h) of 8.9 g, an A/G (24 h) of 0.9 and an ALP (24 h) of 1694.4 IU/L. For the same molecule, the ALT (24 h) was 52.2 IU/L, the AST (24 h) was 79 IU/L and the BUN (24 h) was 12 mg/dL. The CRE (24 h) was 0.2 mg/dL, the Ca (24 h) was 10.4 mg/dL and the Cl (24 h) was 106 meq/L. For the same molecule, the DBIL (24 h) was 0.018 mg/dL, the GLC (24 h) was 186 mg/dL and the IP (24 h) was 8.1 mg/dL. It also gave a K (24 h) of 4 meq/L, an LDH (24 h) of 103.2 IU/L and a Na (24 h) of 142.6 meq/L. For the same molecule, the PL (24 h) was 146.8 mg/dL, the RALB (24 h) was 2.5 g/dL and the TBIL (24 h) was 0.062 mg/dL. It also gave a TC (24 h) of 76.8 mg/dL, a TG (24 h) of 100 mg/dL and a TP (24 h) of 5.4 g/dL. For the same molecule, the gamma-GTP (24 h) was 1.4 IU/L.
